From article PMC8389697, “Development and Characterization of a Novel Peptide—Drug Conjugate with DM1 for Treatment of FGFR2-Positive Tumors” (Biomedicines, 2021)
Square brackets hold non-standard residues; d marks the D form. Ends that are not written are not given here. Hyp = O=C(O)[C@@H]1C[C@@H](O)CN1; Aad = N[C@@H](CCCC(=O)O)C(=O)O; Cit = NC(=O)NCCC[C@H](N)C(=O)O; Nva = CCC[C@H](N)C(=O)O; Ac3c = NC1(C(=O)O)CC1

B1: LLC2B (peptide)
chain: [Hyp][dL][Cit][dD][dN][dK][Ac3c][Nva][Aad]

How the values were obtained:
[1] = once per week; no reference given; cited from earlier work
Source text: We investigated the antitumor efficacy of those two PDCs on xenografted mice in vivo.

MCF-7 cells = experiment: Clone formation experiment; assay type: cell-based, human; conditions: MCF-7, 200 cells per well, 1 week, crystal violet; performed three times
Protocol: We seeded 200 cells per well in 6-well plates with culture medium. After 12 h, the cells were incubated with different agents for 1 week at 37 °C with 5% CO2. Then, we washed the wells with PBS, fixed the cells with methanol for 10 min and stained them with crystal violet at room temperature. Finally, we washed them with sterile water several times in order to obtain a clean background, and then, the colonies formed were photographed and statistically analyzed.

[2] = biological target: T1, FGFR2 extracellular motif protein (UniProt P21802 22-377); experiment: ITC; ITC200, 25 °C, both dissolved in sterile water; 0.1 mM peptide in the sample cell, 0.001 mM FGFR protein in the syringe; 19 injections of 2 µL, 5 min apart; conditions: both partners purified
T1 construct: fibroblast growth factor receptor 2 (FGFR2), recombinant, 'extracellular motif protein'; No catalogue number is printed; limits, isoform (IIIb or IIIc) and tag of the bought protein are unknown; also called FGFR2 protein; recombinant proteins of the FGFR2; source: bought: Sino Biological
T1 sequence (P21802 22-377): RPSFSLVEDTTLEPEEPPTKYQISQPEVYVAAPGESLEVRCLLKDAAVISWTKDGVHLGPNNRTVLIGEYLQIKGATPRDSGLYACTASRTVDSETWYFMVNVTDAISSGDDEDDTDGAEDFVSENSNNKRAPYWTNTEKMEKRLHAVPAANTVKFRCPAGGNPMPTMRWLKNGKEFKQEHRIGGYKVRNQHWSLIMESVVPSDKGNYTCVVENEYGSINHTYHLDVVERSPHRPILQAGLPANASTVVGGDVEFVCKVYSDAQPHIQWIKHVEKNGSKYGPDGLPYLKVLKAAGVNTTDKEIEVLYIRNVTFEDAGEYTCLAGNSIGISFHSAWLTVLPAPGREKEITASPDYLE

Molecule | tolerated concentrations in mice [1] [mg/kg] | concentration that completely suppresses clone formation (MCF-7 cells) [µg/mL] | Ka [2] [M⁻¹] | Kd [2] [nM]
COc1cc2cc(c1Cl)N(C)C(=O)C[C@H](OC(=O)[C@H](C)N(C)C(=O)CCS)[C@]1(C)O[C@H]1[C@H](C)[C@@H]1C[C@@](O)(NC(=O)O1)[C@H](OC)/C=C/C=C(\C)C2 [DM1, reference compound] | 1.0 to 1.5 | 0.001 |  | 
B1 |  |  | 1.04e+09 | 0.96
